Like-named read-outs stand apart in the source and are kept apart here. One block for each compound: values may come before it. Ends that are not written are not given here.
Legend:
HDM2 = HDM2 (Homo sapiens, UniProt Q00987); conditions: literature; cited from earlier work
Weril and Y79 cells = conditions: lentivirus control-infected cells
MDM2, p53 and p21 levels = assay: Immunoblot analysis of p53 pathway induction; conditions: 4 μM nutlin-3; Weril, Y79, primary retinoblasts; all cells except 911 cells
Y79 cells = assay: Retinoblastoma cell viability, Y79 cells; type: cell-based, human; conditions: 72 hours, total racemic drug; read-out: LC50 (the source's name)
From the text: These studies were extended to retinoblastoma cells. […] MDM2, p53 and p21 levels were induced in all cells except for the 911 cells in which p53 was inactivated by the large E1B protein.

[1] = system: p53^LSL MEFs null for Mdm2 and/or MdmX; assay: MTT growth/viability assay in p53^LSL MEFs
retinoblastoma cells = conditions: for p53 response: topotecan at LC50 for 1 hour, nutlin-3 treatment
Mdm2^Lox/Lox MEFs = assay: Clonal analysis in Mdm2-deficient MEFs (Table 8)
[2] = system: SJRBL8 retinoblastoma cell line; assay: Retinoblastoma cell viability, p53-deficient SJRBL8 cells; conditions: 10 μM to 1 nM, 72 hours
[3] = cited from earlier work
[4] = target: MDM2 (amino acid residues 1-188) (Homo sapiens, UniProt Q00987); assay: Fluorescence polarization p53 peptide binding/competition assay, MDM2
MDM2 (amino acid residues 1-188), sequence (Q00987 1-188): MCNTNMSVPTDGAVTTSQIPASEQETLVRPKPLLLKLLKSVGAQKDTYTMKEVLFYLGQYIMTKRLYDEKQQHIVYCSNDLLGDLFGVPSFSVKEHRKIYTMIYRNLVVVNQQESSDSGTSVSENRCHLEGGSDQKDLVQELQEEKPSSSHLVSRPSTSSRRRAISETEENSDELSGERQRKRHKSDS

[5] = target: T1, MDMX (amino acid residues 1-185) (Homo sapiens, UniProt O15151); assay: Fluorescence polarization p53 peptide binding/competition assay, MDMX
T1 sequence (O15151 1-185): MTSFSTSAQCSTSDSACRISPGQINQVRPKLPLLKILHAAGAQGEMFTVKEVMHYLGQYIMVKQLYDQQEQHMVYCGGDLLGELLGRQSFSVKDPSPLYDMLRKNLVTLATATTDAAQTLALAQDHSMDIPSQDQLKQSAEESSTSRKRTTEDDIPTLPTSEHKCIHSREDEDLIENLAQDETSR

HDM2, sequence (Q00987 whole entry): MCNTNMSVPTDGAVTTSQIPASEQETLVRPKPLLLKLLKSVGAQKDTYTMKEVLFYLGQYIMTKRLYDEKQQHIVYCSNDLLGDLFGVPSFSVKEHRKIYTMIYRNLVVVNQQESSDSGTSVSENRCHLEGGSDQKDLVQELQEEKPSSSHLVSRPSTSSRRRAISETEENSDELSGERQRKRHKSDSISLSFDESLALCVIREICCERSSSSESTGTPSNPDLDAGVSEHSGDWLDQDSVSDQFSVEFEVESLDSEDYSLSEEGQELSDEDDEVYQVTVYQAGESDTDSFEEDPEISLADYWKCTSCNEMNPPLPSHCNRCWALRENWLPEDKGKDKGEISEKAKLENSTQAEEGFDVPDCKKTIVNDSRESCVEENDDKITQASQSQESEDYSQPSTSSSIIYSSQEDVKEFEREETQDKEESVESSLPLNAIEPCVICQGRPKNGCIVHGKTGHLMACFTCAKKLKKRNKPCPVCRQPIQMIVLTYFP

Compound: O=C(O)COc1ccc(C(=O)C=Cc2ccc(Cl)c(Cl)c2)cc1 [Trial B-1, {4-[3-(3,4-dichloro-phenyl)-acryloyl]-phenoxy}-acetic acid]
affinity / inhibition of p53/HDM2 complex (HDM2): high micromolar affinity

Compound: COc1ccc(C2=N[C@@H](c3ccc(Cl)cc3)[C@@H](c3ccc(Cl)cc3)N2C(=O)N2CCNC(=O)C2)c(OC(C)C)c1 [nutlin-3]
proliferation of control-infected cells (Weril and Y79 cells): inhibited the proliferation
MDM2, p53 and p21 levels (MDM2, p53 and p21 levels): induced
CC50 (Y79 cells): 2000 nM
sensitivity of MEFs to nutlin-3 ([1]; MdmX^+/− MEFs after Cre): sensitive
sensitivity of MEFs to nutlin-3 ([1]; MdmX^−/− MEFs after Cre): insensitive
effect of nutlin-3 alone (retinoblastoma cells; 10 nM): ineffective alone
p53 response (retinoblastoma cells): induced a p53 response
response to nutlin-3 with MDMX cDNA (Weril cells; Weril cells, MDMX cDNA): more resistant
response to nutlin-3 with MDMX siRNA (Weril cells; Weril cells, MDMX siRNA): sensitized
CC50 (Weril cells; read-out: LC50 (50% lethal concentration), 72 hours, total racemic drug): 700 nM
CC50 (Weril cells; read-out: LC50, Weril cells transfected with control siRNA): 600 nM
CC50 (Weril cells; read-out: LC50, Weril cells transfected with p53 siRNA): 10000 nM
MdmX rescue of the loss of Mdm2 in MEFs (Mdm2^Lox/Lox MEFs; 1.25 μM or 5 μM racemic nutlin-3): blocked
number of cells per clone (Mdm2^Lox/Lox MEFs; GFP virus, 1.25 μM racemic nutlin-3, Day 2): 1.0 ± 0^
number of cells per clone (Mdm2^Lox/Lox MEFs; GFP virus, 1.25 μM racemic nutlin-3, Day 3): 1.5 ± 0.4
number of cells per clone (Mdm2^Lox/Lox MEFs; GFP virus, 1.25 μM racemic nutlin-3, Day 4): 2.1 ± 0.7
number of cells per clone (Mdm2^Lox/Lox MEFs; GFP virus, 5.0 μM racemic nutlin-3, Day 2): 1.1 ± 0.2
number of cells per clone (Mdm2^Lox/Lox MEFs; GFP virus, 5.0 μM racemic nutlin-3, Day 3): 1.5 ± 0.4
number of cells per clone (Mdm2^Lox/Lox MEFs; Mdm2-GFP virus, 1.25 μM racemic nutlin-3, Day 2): 3.1 ± 1.5
number of cells per clone (Mdm2^Lox/Lox MEFs; Mdm2-GFP virus, 1.25 μM racemic nutlin-3, Day 3): 6.6 ± 5.2
number of cells per clone (Mdm2^Lox/Lox MEFs; Mdm2-GFP virus, 1.25 μM racemic nutlin-3, Day 4): 10.0 ± 7.4
number of cells per clone (Mdm2^Lox/Lox MEFs; Mdm2-GFP virus, 1.25 μM racemic nutlin-3, Day 5): 12.9 ± 8.1
number of cells per clone (Mdm2^Lox/Lox MEFs; Mdm2-GFP virus, 1.25 μM racemic nutlin-3, Day 6): 14.5 ± 9.3
number of cells per clone (Mdm2^Lox/Lox MEFs; Mdm2-GFP virus, 5.0 μM racemic nutlin-3, Day 2): 3.0 ± 2.2
number of cells per clone (Mdm2^Lox/Lox MEFs; Mdm2-GFP virus, 5.0 μM racemic nutlin-3, Day 3): 3.3 ± 1.4
number of cells per clone (Mdm2^Lox/Lox MEFs; Mdm2-GFP virus, 5.0 μM racemic nutlin-3, Day 4): 3.9 ± 2.1
number of cells per clone (Mdm2^Lox/Lox MEFs; Mdm2-GFP virus, 5.0 μM racemic nutlin-3, Day 5): 3.1 ± 1.7
number of cells per clone (Mdm2^Lox/Lox MEFs; Mdm2-GFP virus, 5.0 μM racemic nutlin-3, Day 6): 2.8 ± 2.0
number of cells per clone (Mdm2^Lox/Lox MEFs; MdmX-GFP virus, 1.25 μM racemic nutlin-3, Day 2): 1.1 ± 0.2
number of cells per clone (Mdm2^Lox/Lox MEFs; MdmX-GFP virus, 1.25 μM racemic nutlin-3, Day 3): 1.9 ± 0.6
number of cells per clone (Mdm2^Lox/Lox MEFs; MdmX-GFP virus, 1.25 μM racemic nutlin-3, Day 4): 2.8 ± 1.7
number of cells per clone (Mdm2^Lox/Lox MEFs; MdmX-GFP virus, 1.25 μM racemic nutlin-3, Day 5): 3.4 ± 2.2
number of cells per clone (Mdm2^Lox/Lox MEFs; MdmX-GFP virus, 1.25 μM racemic nutlin-3, Day 6): 2.1 ± 1.9
number of cells per clone (Mdm2^Lox/Lox MEFs; MdmX-GFP virus, 5.0 μM racemic nutlin-3, Day 2): 1.2 ± 0.4
number of cells per clone (Mdm2^Lox/Lox MEFs; MdmX-GFP virus, 5.0 μM racemic nutlin-3, Day 3): 1.1 ± 0.1
number of cells per clone (Mdm2^Lox/Lox MEFs; MdmX-GFP virus, 5.0 μM racemic nutlin-3, Day 4): 1.3 ± 0.2
number of cells per clone (Mdm2^Lox/Lox MEFs; MdmX-GFP virus, 5.0 μM racemic nutlin-3, Day 5): 1.0 ± 0^
viability [2]: no decrease in viability at any concentration tested

Compound: COc1ccc(C2=N[C@@H](c3ccc(Cl)cc3)[C@@H](c3ccc(Cl)cc3)N2C(=O)N2CCNC(=O)C2)c(OC(C)C)c1 [nutlin-3a]
penetration into the vitreous ([3]; oral and intravenous formulations): poor penetration into the vitreous

Compound: CC[C@@]1(O)C(=O)OCc2c1cc1n(c2=O)Cc2cc3c(CN(C)C)c(O)ccc3nc2-1 [topotecan, Topotecan]
intraocular penetration ([3]; systemic administration, murine models of retinoblastoma): good intraocular penetration
p53 response (retinoblastoma cells): induced a p53 response

Compound: FMDYWEGL [SEQ ID NO:4]
affinity / inhibition of p53/HDM2 complex (HDM2): micromolar affinity

Compound: MPRFMDYWEGLN [SEQ ID NO:2]
affinity / inhibition of p53/HDM2 complex (HDM2): sub-micromolar affinity
fold increase in potency compared to wild-type p53-derived peptide (SEQ ID NO:3) (HDM2): 28 fold

MDM2 binding [4]: no MDM2 or MDMX binding
MDMX binding [5]: no MDM2 or MDMX binding
Compound: NH2-Gly-Ser-Gly-Ser-Ser-Gln-Glu-Thr-Ala-Ser-Asp-Leu-Ala-Lys-Leu-Ala-Pro-Glu-Asn-OH (H-GSGSSQETASDLAKLAPEN-OH) [p53 mutant]

Compound: chlorofusin
affinity / inhibition of p53/HDM2 complex (HDM2): micromolar inhibitor

— US8470785B2, “Method for treating ocular cancer” (St. Jude Children's Research Hospital, priority 2006, dated 2013)
